{
  "source": "patent US8017727B2",
  "about": "“Conjugates of membrane translocating agents and pharmaceutically active agents” (Merrion Research III Limited, priority 1999, dated 2011)",
  "key": {"[1]": {"assay": "Stability of MTLPs in simulated intestinal fluid pH 6.8 with pancreatin (HPLC recovery)", "method": "MTLPs ZElan094 and ZElan207 (SEQ. ID NO: 2 and 60) were dissolved in water and mixed with simulated intestinal fluid pH 6.8 containing porcine derived pancreatin (SIF+Pancreatin) at 37° C. The mixtures were incubated for up to 60 minutes at 37° C., with aliquots taken at designated time points. The reaction was quenched with quenching solution after the relevant time points in order to halt the reaction between the SIF and ligand.\nApproximately 1 mg of ligand was dissolved in 1 ml of water. This standard stock solution of ligand was used to prepare the solutions containing Ligand+SIF+Pancreatin. 50 μL of ligand solution was mixed with volumes of SIF+Pancreatin in separate eppendorfs, as follows:\nAt the appropriate time point the reaction between the ligand and SIF was stopped by pipetting 100 μL of the mixture into 500 μL of quenching solution (Acetonitrile:Water 30:70). 20 μL of the mixture was injected onto the HPLC system.\nControl samples of ligand in water and in quenching solution were prepared to check for recovery of ligand in the absence of SIF+Pancreatin."}, "[2]": {"test_system": "Caco-2 cell monolayers", "assay": "Permeability of tritiated kappa peptide conjugates through differentiated Caco-2 cell monolayers", "type": "in vitro ADME, human", "details": "n=5", "method": "Highest transport values were obtained in the first 30 min followed by a 2-4 fold decrease at 60 min. The significance of these findings is unclear. The data may be indicative of dual binding/uptake events occurring through i) a kappa receptor specific mechanism and ii) direct membrane interaction through lipid interaction of the membrane permeable peptide."}, "[3]": {"assay": "Systemic 3H bioavailability of kappa peptide conjugates, conscious rat model (plasma)", "type": "in vivo, Wistar rats", "details": "intraduodenal (ID), 100 μCi", "method": "The possible enhancing effects of ELAN094 and ELAN207 MTLPs (SEQ ID NOs 2 and 60) on intestinal absorption of the kappa peptide were examined in a conscious rat model.\nThe study was non-randomised, parallel group design. Wistar rats within the 250-350 g weight range were used. All animals were fasted for a period of 16 h prior to study initiation. Water was available at all times.\nIntravenous injection of 10 μCi of ^3H-kappa peptide-Kaffiralin-1 (plain kappa peptide) (tail vein injection).\nIntraduodenal instillation of 100 μCi of ^3H-kappa peptide-Elan094 (Analysed). The Elan094 ligand contains a membrane translocating sequence.\nIntraduodenal instillation of 100 μCi of ^3H-kappa peptide-Elan207 (Analysed). The Elan207 ligand contains a membrane translocating sequence.\nIntraduodenal instillation of 100 μCi of ^3H-kappa peptide-Kaffiralin-1.\nThe plasma (100-250 μl) was made up to 1 ml with BTS-450 (an organic tissue solubiliser) and incubated for 1 hour. Ten ml of Scintillation fluid was added and the radioactivity was measured.\nThe study was a non-randomised, parallel group biostudy designed to evaluate the systemic bioavailability of tritium labelled kappa peptide conjugates after intra-duodenal instillation in the conscious rat model. Each rat only received one treatment and the plasma samples were analysed for tritium content. The calculation of AUClast, Amax, tmax, Volume of Distribution (V d) and Clearance was based on base line corrected data. The absolute bioavailability was calculated using potency corrected data."}, "[4]": {"assay": "3H tissue distribution of kappa peptide conjugates, conscious rat model", "type": "in vivo, Wistar rats", "details": "ID, 100 μCi, potency corrected", "method": "The tissue was weighed and a representative sample, (ca 0.1 g), was removed to a scintillation vial. The tissue was solubilzed with 1 ml of BTS-450 (an organic tissue solubliser). Ten ml of scintillation fluid was added and the radioactivity was measured. The radioactivity was expressed as dpm/initial weight of tissue."}, "[5]": {"test_system": "Caco-2 monolayers", "assay": "Transport of dipeptide 14C-gly-sar across Caco-2 monolayers", "type": "cell-based, human", "set-up": "key to % inhibition 14C-gly-sar transport: NS: no significant difference between experimental (+MTLP) and control cells (−MTLP) in the transport of radiolabeled drug", "details": "flux measured over 2 h", "method": "The effect of the MTLPs ZElan094, ZElan178 and ZElan187 (SEQ ID NOS: 2, 7 and 16) and of the targeting peptide ZElan022 (U.S. patent application Ser. Nos. 09/079,819, 09/079,723 AND 09/079,678, AND PCT APPLICATION PCT/US98/10088, PUBLISHED AS WO 98/51325) on the transport of the dipeptide ^14C-gly-sar and of the reporter molecule ^3H-fMLP across Caco-2 monolayers was determined. The Caco-2 monolayers were grown on Transwell-Snapwells. Cell viability was determined by measuring TEER of the Caco-2 monolayers during each experiment. No significant drop in TEER was measured. Cell permeability was determined by measuring mannitol flux across the Caco-2 monolayers during each experiment. No increase in mannitol flux was measured in the presence of the MTLP ZElan094.\nThe flux of the dipeptide ^14C-gly-sar and of the reporter molecule ^3H-fMLP across the Caco-2 monolayers in the absence and in the presence of the MTLPs ZElan094, ZElan178 and ZElan187 (SEQ ID NOS: 2, 7 and 16) and of the targeting peptide ZElan022 (U.S. patent application Ser. Nos. 09/079,819, 09/079,723 AND 09/079,678), AND PCT APPLICATION PCT/US98/10088, PUBLISHED AS WO 98/51325 was measured over 2 h, and reduction in the permeability coefficient was determined in the presence of cold substrates."}, "[6]": {"assay": "Opioid peptide stability in SIF (pancreatin, pH 7.5, HPLC/LCMS)", "type": "in vitro ADME", "method": "Pancreatin (Fisher Scientific) was dissolved at 1 mg/ml in 1× phosphate buffer solution. The pH of the solution was adjusted to 7.5 with 0.01 M NaOH and it was heated in a waterbath to 37° C. Two dry peptide samples were weighed out. One sample was dissolved in phosphate buffer solution at 1.0 mg/ml as a control. The second sample was dissolved in SIF at 1.0 mg/ml for stability analysis. HPLC Analysis Conditions RP-HPLC analysis with C-18 short column (Betasil column, 5 μm (50×3 mm) PN: 055-701-3) with the following gradient: […]\nDiode array detector on the system, 214 nm used for analysis\nSolution in SIF injected at 0, 1, 3, and 24 hours\nAnalyzed control and 24 hour sample by LCMS."}, "[7]": {"molecular_target": "T1, kappa receptor (Rattus norvegicus, UniProt P34975)", "T1 construct": "from tissue; host or cells: rat brain homogenate", "assay": "Competition for binding of a radiolabelled kappa peptide to rat brain homogenates", "details": "IC50, Day 82, first of triplicates", "method": "The integrity of the opioid peptide was evaluated post conjugation to assess suitability for inclusion in further studies. Opioid activity was assessed in vitro using a competition assay (competition for binding of a radiolabelled kappa peptide to rat brain homogenates)."}},
  "data": [
    {"compound": "CC(C)C[C@@H](NC(=O)[C@@H](CC(C)C)NC(=O)[C@H](NC(=O)[C@H]1CCCN1C(=O)[C@@H](CC(C)C)NC(=O)[C@@H](CC(C)C)NC(=O)[C@H](NC(=O)[C@@H](C)NC(=O)[C@@H](C)NC(=O)[C@@H](C)NC(=O)[C@@H](CCCCN)NC(=O)[C@@H](CCCCN)NC(=O)[C@H](N)CCCCNS(=O)(=O)c1cccc2c(N(C)C)cccc12)C(C)C)C(C)C)C(=O)N[C@H](C)C(=O)N[C@H](C)C(=O)N1CCC[C@@H]1C(N)=O", "note": "[ZElan207]", "values": [
      {"measurement": "recovery", "setting": "[1]; % Recovery, control without SIF: Pep + H2O (100 ul) + H2O, 60 min", "result": 101, "unit": "%"},
      {"measurement": "recovery", "setting": "[1]; % Recovery, control without SIF: Pep + H2O (100 ul) + quenching solution, 60 min", "result": 101, "unit": "%"},
      {"measurement": "recovery", "setting": "[1]; pH 6.8, % Recovery, Peptide + 100 uL SIF pH 6.8, 37 C, 5 min", "result": 96.6, "unit": "%"},
      {"measurement": "recovery", "setting": "[1]; pH 6.8, % Recovery, Peptide + 100 uL SIF pH 6.8, 37 C, 10 min", "result": 97.4, "unit": "%"},
      {"measurement": "recovery", "setting": "[1]; pH 6.8, % Recovery, Peptide + 100 uL SIF pH 6.8, 37 C, 30 min", "result": 87.8, "unit": "%"},
      {"measurement": "recovery", "setting": "[1]; pH 6.8, % Recovery, Peptide + 100 uL SIF pH 6.8, 37 C, 60 min", "result": 97.7, "unit": "%"},
      {"measurement": "recovery", "setting": "[1]; pH 6.8, % Recovery, Peptide + 200 uL SIF pH 6.8, 37 C, 5 min", "result": 99, "unit": "%"},
      {"measurement": "recovery", "setting": "[1]; pH 6.8, % Recovery, Peptide + 200 uL SIF pH 6.8, 37 C, 10 min", "result": 96.3, "unit": "%"},
      {"measurement": "recovery", "setting": "[1]; pH 6.8, % Recovery, Peptide + 200 uL SIF pH 6.8, 37 C, 30 min", "result": 92.8, "unit": "%"},
      {"measurement": "recovery", "setting": "[1]; pH 6.8, % Recovery, Peptide + 200 uL SIF pH 6.8, 37 C, 60 min", "result": 96.5, "unit": "%"}
    ]},
    {"compound": "CC[C@@H](C)[C@@H](NC(=O)[C@@H](Cc1ccccc1)NC(=O)[C@@H](Cc1ccccc1)NC(=O)[C@H](CCCCN)NC(=O)[C@@H]1CCCN1C(=O)[C@H](C)NC(=O)[C@H](C)NC(=O)[C@H](CC(C)C)NC(=O)[C@H](CC(C)C)NC(=O)[C@@H](NC(=O)[C@@H]1CCCN1C(=O)[C@H](CC(C)C)NC(=O)[C@H](CC(C)C)NC(=O)[C@@H](NC(=O)[C@H](C)NC(=O)[C@H](C)NC(=O)[C@H](C)NC(=O)[C@H](CCCCN)NC(=O)[C@@H](N)CCCCN)C(C)C)C(C)C)C(=O)N[C@H](CCCNC(=N)N)C(N)=O", "note": "[3H-Kappa peptide-Elan094]", "values": [
      {"measurement": "permeability compared to the kappa peptide control", "setting": "[2]", "result": "No significant increase"},
      {"measurement": "fold increase in absolute 3H bioavailability versus kappa peptide without ligand", "setting": "[3]", "result": "~6", "unit": "fold"},
      {"measurement": "3H AUClast", "setting": "[3]; Elan207 = original group", "result": "260642.53±35010.58", "unit": "dpm/ml·h"},
      {"measurement": "3H Amax (maximum radioactivity)", "setting": "[3]; Elan207 = original group", "result": "158512.67±18907.79", "unit": "dpm/ml"},
      {"measurement": "fold increase in absolute 3H bioavailability versus kappa peptide without ligand", "setting": "[3]; listed as Elan094 MTLP", "result": "approximately 5.8 fold"},
      {"measurement": "bioavailability", "setting": "[3]; rat, plasma, potency corrected, Elan207 = original group, read-out: Absolute 3H bioavailability", "result": "46.5 ± 6.24", "unit": "%"},
      {"measurement": "Catheter, % of administered dose", "setting": "[4]", "result": "0.20 ± 0.10", "unit": "%"},
      {"measurement": "GI Tissue, % of administered dose", "setting": "[4]", "result": "11.61 ± 11.27", "unit": "%"},
      {"measurement": "GI Washing, % of administered dose", "setting": "[4]", "result": "9.70 ± 5.24", "unit": "%"},
      {"measurement": "GI contents, % of administered dose", "setting": "[4]", "result": "23.57 ± 21.57", "unit": "%"},
      {"measurement": "Liver, % of administered dose", "setting": "[4]", "result": "0.37 ± 0.06", "unit": "%"},
      {"measurement": "Total GI (% recovery from GI tissue, GI contents & GI wash)", "setting": "[4]", "result": "44.89 ± 19.94", "unit": "%"},
      {"measurement": "Kidney, % of administered dose", "setting": "[4]; t=6 h", "result": "0.12 ± 0.07", "unit": "%"},
      {"measurement": "Plasma, % of administered dose", "setting": "[4]; t=6 h", "result": "0.42±0.08", "unit": "%"},
      {"measurement": "Total Recovery, % of administered dose", "setting": "[4]; t=6 h", "result": "46.00 ± 19.91", "unit": "%"}
    ]},
    {"compound": "H-K(ε-dansyl)KKAAVLLPVLLA-NH2 ({K(ε-dansyl)}-KKAAVLLPVLLA-NH2) [ZElan187]", "values": [
      {"measurement": "% inhibition 14C-gly-sar transport", "setting": "[5]", "result": "NS"},
      {"measurement": "inhibition of 14C-gly-sar transport", "setting": "[5]", "result": "did not inhibit transport"}
    ]},
    {"compound": "CC[C@@H](C)[C@@H](NC(=O)[C@@H](Cc1ccccc1)NC(=O)[C@H](N)Cc1ccccc1)C(=O)N[C@H](CCCNC(=N)N)C(N)=O", "note": "[H-ffir-NH2]", "values": [
      {"measurement": "stability in SIF", "setting": "[6]; over the 24 hour period", "result": "very stable"},
      {"measurement": "remaining at 1 h, 1 mg/ml", "setting": "[6]; simulated intestinal fluid (SIF) with pancreatin, pH 7.5, SIF, 37° C., 1 hr, read-out: % Compound", "result": 105, "unit": "%"},
      {"measurement": "remaining at 24 h, 1 mg/ml", "setting": "[6]; simulated intestinal fluid (SIF) with pancreatin, pH 7.5, SIF, 37° C., 24 hr, read-out: % Compound", "result": 101, "unit": "%"},
      {"measurement": "IC50", "setting": "[7]", "result": 4, "unit": "nM"}
    ]},
    {"compound": "H-K(ε-dansyl)KKCAAVLLPVLLAC-NH2 ({K(ε-dansyl)}-KKCAAVLLPVLLAC-NH2; not fully specified; printed as H-K(ε-dansyl)KKCAAVLLPVLLAC-NH2; also: cyclic internal, bridge kind and places not given here) [ZElan178]", "values": [
      {"measurement": "% inhibition 14C-gly-sar transport", "setting": "[5]", "result": "NS"},
      {"measurement": "inhibition of 14C-gly-sar transport", "setting": "[5]", "result": "did not inhibit transport"}
    ]}
  ]
}
